Measured values reported in the supplement of paper PMC10307832.

Columns and labels:
Experiment in all cases: relative viability (nuclei count vs DMSO), 5 days (fraction); higher = more cells survive
Alpelisib + Navitoclax = compound: Cc1nc(NC(=O)N2CCC[C@H]2C(N)=O)sc1-c1ccnc(C(C)(C)C(F)(F)F)c1 [Alpelisib] + CC1(C)CCC(c2ccc(Cl)cc2)=C(CN2CCN(c3ccc(C(=O)NS(=O)(=O)c4ccc(N[C@H](CCN5CCOCC5)CSc5ccccc5)c(S(=O)(=O)C(F)(F)F)c4)cc3)CC2)C1 [Navitoclax] (partner 0.5 µM)
Outline: (§1)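 The day after seeding in 1536-well plates, lung cancer cell lines were treated by pin tool with a single drug, or with a fixed anchor-drug dose together with five library-drug doses (not always all listed) in √10 steps. After 5 days, a combined fix-and-stain solution (final 0.05% Triton X-100, 1% formaldehyde, 1 ug/ml Hoechst) was added. Nuclei counted on 4× images gave relative viability as treated counts over vehicle counts, reported as the median of duplicate plates.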

Vemurafenib + Vorinostat = compound: CCCS(=O)(=O)Nc1ccc(F)c(C(=O)c2c[nH]c3ncc(-c4ccc(Cl)cc4)cc23)c1F [Vemurafenib] + O=C(CCCCCCC(=O)Nc1ccccc1)NO [Vorinostat] (partner 1 µM)
Outline: as §1

OSI-027 + Dasatinib = compound: COc1cccc2cc(-c3nc([C@H]4CC[C@H](C(=O)O)CC4)n4ncnc(N)c34)[nH]c12 [OSI-027] + Cc1nc(Nc2ncc(C(=O)Nc3c(C)cccc3Cl)s2)cc(N2CCN(CCO)CC2)n1 [Dasatinib] (partner 0.075 µM)
Outline: as §1

Vemurafenib + Decitabine = compound: CCCS(=O)(=O)Nc1ccc(F)c(C(=O)c2c[nH]c3ncc(-c4ccc(Cl)cc4)cc23)c1F [Vemurafenib] + Nc1ncn([C@H]2C[C@H](O)[C@@H](CO)O2)c(=O)n1 [Decitabine] (partner 2 µM)
Outline: as §1

IA-LM
relative viability (Alpelisib + Navitoclax; first compound 0.04 µM): 0.894
relative viability (Alpelisib + Navitoclax; first compound 0.1265 µM): 0.727
relative viability (Alpelisib + Navitoclax; first compound 0.4 µM): 0.736
relative viability (Alpelisib + Navitoclax; first compound 1.265 µM): 0.628
relative viability (Alpelisib + Navitoclax; first compound 4 µM): 0.718
relative viability (Vemurafenib + Vorinostat; first compound 0.03162 µM): 0.975
relative viability (Vemurafenib + Vorinostat; first compound 0.1 µM): 0.914
relative viability (Vemurafenib + Vorinostat; first compound 0.3162 µM): 0.946
relative viability (Vemurafenib + Vorinostat; first compound 1 µM): 0.966

NCI-H1650
relative viability (Alpelisib + Navitoclax; first compound 0.04 µM): 1.29
relative viability (Alpelisib + Navitoclax; first compound 0.1265 µM): 1.29
relative viability (Alpelisib + Navitoclax; first compound 0.4 µM): 1.42
relative viability (Alpelisib + Navitoclax; first compound 1.265 µM): 0.762
relative viability (Alpelisib + Navitoclax; first compound 4 µM): 1.19
relative viability (OSI-027 + Dasatinib; first compound 0.01 µM): 0.313
relative viability (OSI-027 + Dasatinib; first compound 0.03162 µM): 0.347
relative viability (OSI-027 + Dasatinib; first compound 0.1 µM): 0.255
relative viability (OSI-027 + Dasatinib; first compound 0.3162 µM): 0.279
relative viability (OSI-027 + Dasatinib; first compound 1 µM): 0.229
relative viability (Vemurafenib + Decitabine; first compound 0.03162 µM): 0.348
relative viability (Vemurafenib + Decitabine; first compound 0.1 µM): 0.499
relative viability (Vemurafenib + Decitabine; first compound 0.3162 µM): 0.413
relative viability (Vemurafenib + Decitabine; first compound 1 µM): 0.461
relative viability (Vemurafenib + Vorinostat; first compound 0.03162 µM): 0.466
relative viability (Vemurafenib + Vorinostat; first compound 0.1 µM): 0.477
relative viability (Vemurafenib + Vorinostat; first compound 0.3162 µM): 0.682
relative viability (Vemurafenib + Vorinostat; first compound 1 µM): 0.485

NCI-H322M
relative viability (Alpelisib + Navitoclax; first compound 0.04 µM): 0.908
relative viability (Alpelisib + Navitoclax; first compound 0.1265 µM): 1.07
relative viability (Alpelisib + Navitoclax; first compound 0.4 µM): 1.29
relative viability (Alpelisib + Navitoclax; first compound 1.265 µM): 0.941
relative viability (Alpelisib + Navitoclax; first compound 4 µM): 0.936
relative viability (OSI-027 + Dasatinib; first compound 0.01 µM): 0.252
relative viability (OSI-027 + Dasatinib; first compound 0.03162 µM): 0.236
relative viability (OSI-027 + Dasatinib; first compound 0.1 µM): 0.224
relative viability (OSI-027 + Dasatinib; first compound 0.3162 µM): 0.233
relative viability (OSI-027 + Dasatinib; first compound 1 µM): 0.248
relative viability (Vemurafenib + Decitabine; first compound 0.03162 µM): 0.721
relative viability (Vemurafenib + Decitabine; first compound 0.3162 µM): 0.86
relative viability (Vemurafenib + Decitabine; first compound 1 µM): 0.707
relative viability (Vemurafenib + Vorinostat; first compound 0.03162 µM): 0.84
relative viability (Vemurafenib + Vorinostat; first compound 0.3162 µM): 1.11
relative viability (Vemurafenib + Vorinostat; first compound 1 µM): 0.829

SW 1573
relative viability (Alpelisib + Navitoclax; first compound 0.04 µM): 0.903
relative viability (Alpelisib + Navitoclax; first compound 0.1265 µM): 0.879
relative viability (Alpelisib + Navitoclax; first compound 0.4 µM): 1.03
relative viability (Alpelisib + Navitoclax; first compound 1.265 µM): 0.768
relative viability (Alpelisib + Navitoclax; first compound 4 µM): 0.585
relative viability (OSI-027 + Dasatinib; first compound 0.01 µM): 0.379
relative viability (OSI-027 + Dasatinib; first compound 0.03162 µM): 0.456
relative viability (OSI-027 + Dasatinib; first compound 0.1 µM): 0.477
relative viability (OSI-027 + Dasatinib; first compound 0.3162 µM): 0.494
relative viability (OSI-027 + Dasatinib; first compound 1 µM): 0.331
relative viability (Vemurafenib + Decitabine; first compound 0.03162 µM): 0.386
relative viability (Vemurafenib + Decitabine; first compound 0.1 µM): 0.442
relative viability (Vemurafenib + Decitabine; first compound 0.3162 µM): 0.484
relative viability (Vemurafenib + Decitabine; first compound 1 µM): 0.452
relative viability (Vemurafenib + Vorinostat; first compound 0.03162 µM): 0.655
relative viability (Vemurafenib + Vorinostat; first compound 0.1 µM): 0.767
relative viability (Vemurafenib + Vorinostat; first compound 0.3162 µM): 0.473
relative viability (Vemurafenib + Vorinostat; first compound 1 µM): 0.537

HCC-827
relative viability (Alpelisib + Navitoclax; first compound 0.04 µM): 1
relative viability (Alpelisib + Navitoclax; first compound 0.1265 µM): 1.02
relative viability (Alpelisib + Navitoclax; first compound 0.4 µM): 1.06
relative viability (Alpelisib + Navitoclax; first compound 1.265 µM): 1.01
relative viability (Alpelisib + Navitoclax; first compound 4 µM): 0.908
relative viability (OSI-027 + Dasatinib; first compound 0.01 µM): 0.298
relative viability (OSI-027 + Dasatinib; first compound 0.03162 µM): 0.295
relative viability (OSI-027 + Dasatinib; first compound 0.1 µM): 0.326
relative viability (OSI-027 + Dasatinib; first compound 0.3162 µM): 0.226
relative viability (OSI-027 + Dasatinib; first compound 1 µM): 0.222
relative viability (Vemurafenib + Decitabine; first compound 0.03162 µM): 0.27
relative viability (Vemurafenib + Decitabine; first compound 0.3162 µM): 0.326
relative viability (Vemurafenib + Decitabine; first compound 1 µM): 0.35
relative viability (Vemurafenib + Vorinostat; first compound 0.03162 µM): 0.796
relative viability (Vemurafenib + Vorinostat; first compound 0.3162 µM): 0.663
relative viability (Vemurafenib + Vorinostat; first compound 1 µM): 0.816

LU99A
relative viability (Alpelisib + Navitoclax; first compound 0.04 µM): 0.785
relative viability (Alpelisib + Navitoclax; first compound 0.1265 µM): 0.716
relative viability (Alpelisib + Navitoclax; first compound 0.4 µM): 0.773
relative viability (Alpelisib + Navitoclax; first compound 1.265 µM): 0.546
relative viability (Alpelisib + Navitoclax; first compound 4 µM): 0.426
relative viability (OSI-027 + Dasatinib; first compound 0.01 µM): 0.519
relative viability (OSI-027 + Dasatinib; first compound 0.03162 µM): 0.513
relative viability (OSI-027 + Dasatinib; first compound 0.1 µM): 0.486
relative viability (OSI-027 + Dasatinib; first compound 0.3162 µM): 0.293
relative viability (OSI-027 + Dasatinib; first compound 1 µM): 0.259
relative viability (Vemurafenib + Decitabine; first compound 0.03162 µM): 0.843
relative viability (Vemurafenib + Decitabine; first compound 0.1 µM): 0.907
relative viability (Vemurafenib + Decitabine; first compound 1 µM): 0.719
relative viability (Vemurafenib + Vorinostat; first compound 0.03162 µM): 0.513
relative viability (Vemurafenib + Vorinostat; first compound 0.1 µM): 0.578
relative viability (Vemurafenib + Vorinostat; first compound 1 µM): 0.466

LK-2
relative viability (Alpelisib + Navitoclax; first compound 0.04 µM): 0.751
relative viability (Alpelisib + Navitoclax; first compound 0.1265 µM): 0.72
relative viability (Alpelisib + Navitoclax; first compound 0.4 µM): 0.697
relative viability (Alpelisib + Navitoclax; first compound 1.265 µM): 0.374
relative viability (Alpelisib + Navitoclax; first compound 4 µM): 0.507
relative viability (OSI-027 + Dasatinib; first compound 0.01 µM): 0.343
relative viability (OSI-027 + Dasatinib; first compound 0.03162 µM): 0.266
relative viability (OSI-027 + Dasatinib; first compound 0.1 µM): 0.24
relative viability (OSI-027 + Dasatinib; first compound 0.3162 µM): 0.203
relative viability (OSI-027 + Dasatinib; first compound 1 µM): 0.225
relative viability (Vemurafenib + Decitabine; first compound 0.03162 µM): 0.243
relative viability (Vemurafenib + Decitabine; first compound 0.1 µM): 0.342
relative viability (Vemurafenib + Decitabine; first compound 0.3162 µM): 0.321
relative viability (Vemurafenib + Decitabine; first compound 1 µM): 0.254
relative viability (Vemurafenib + Vorinostat; first compound 0.03162 µM): 0.261
relative viability (Vemurafenib + Vorinostat; first compound 0.1 µM): 0.271
relative viability (Vemurafenib + Vorinostat; first compound 0.3162 µM): 0.3
relative viability (Vemurafenib + Vorinostat; first compound 1 µM): 0.247

EMC-BAC-2
relative viability (Alpelisib + Navitoclax; first compound 0.04 µM): 1.11
relative viability (Alpelisib + Navitoclax; first compound 0.1265 µM): 1.08
relative viability (Alpelisib + Navitoclax; first compound 0.4 µM): 1.17
relative viability (Alpelisib + Navitoclax; first compound 1.265 µM): 0.956
relative viability (Alpelisib + Navitoclax; first compound 4 µM): 0.879
relative viability (OSI-027 + Dasatinib; first compound 0.01 µM): 0.296
relative viability (OSI-027 + Dasatinib; first compound 0.03162 µM): 0.311
relative viability (OSI-027 + Dasatinib; first compound 0.1 µM): 0.308
relative viability (OSI-027 + Dasatinib; first compound 0.3162 µM): 0.249
relative viability (OSI-027 + Dasatinib; first compound 1 µM): 0.225
relative viability (Vemurafenib + Decitabine; first compound 0.03162 µM): 0.958
relative viability (Vemurafenib + Decitabine; first compound 0.1 µM): 0.934
relative viability (Vemurafenib + Decitabine; first compound 1 µM): 0.96
relative viability (Vemurafenib + Vorinostat; first compound 0.03162 µM): 0.361
relative viability (Vemurafenib + Vorinostat; first compound 0.1 µM): 0.411
relative viability (Vemurafenib + Vorinostat; first compound 1 µM): 0.415

NCI-H2342
relative viability (OSI-027 + Dasatinib; first compound 0.01 µM): 0.316
relative viability (OSI-027 + Dasatinib; first compound 0.03162 µM): 0.278
relative viability (OSI-027 + Dasatinib; first compound 0.1 µM): 0.314
relative viability (OSI-027 + Dasatinib; first compound 0.3162 µM): 0.296
relative viability (OSI-027 + Dasatinib; first compound 1 µM): 0.316
relative viability (Vemurafenib + Decitabine; first compound 0.03162 µM): 0.705
relative viability (Vemurafenib + Decitabine; first compound 0.1 µM): 0.702
relative viability (Vemurafenib + Decitabine; first compound 0.3162 µM): 0.773
relative viability (Vemurafenib + Decitabine; first compound 1 µM): 0.706
relative viability (Vemurafenib + Vorinostat; first compound 0.03162 µM): 0.623
relative viability (Vemurafenib + Vorinostat; first compound 0.1 µM): 0.785
relative viability (Vemurafenib + Vorinostat; first compound 0.3162 µM): 0.755
relative viability (Vemurafenib + Vorinostat; first compound 1 µM): 0.787

NCI-H460
relative viability (Alpelisib + Navitoclax; first compound 0.04 µM): 1.06
relative viability (Alpelisib + Navitoclax; first compound 0.1265 µM): 1.25
relative viability (Alpelisib + Navitoclax; first compound 0.4 µM): 1.08
relative viability (Alpelisib + Navitoclax; first compound 1.265 µM): 0.701
relative viability (Alpelisib + Navitoclax; first compound 4 µM): 0.299
relative viability (OSI-027 + Dasatinib; first compound 0.01 µM): 0.568
relative viability (OSI-027 + Dasatinib; first compound 0.03162 µM): 0.462
relative viability (OSI-027 + Dasatinib; first compound 0.1 µM): 0.37
relative viability (OSI-027 + Dasatinib; first compound 0.3162 µM): 0.243
relative viability (OSI-027 + Dasatinib; first compound 1 µM): 0.158
relative viability (Vemurafenib + Decitabine; first compound 0.03162 µM): 0.435
relative viability (Vemurafenib + Decitabine; first compound 0.1 µM): 0.511
relative viability (Vemurafenib + Decitabine; first compound 0.3162 µM): 0.485
relative viability (Vemurafenib + Decitabine; first compound 1 µM): 0.501
relative viability (Vemurafenib + Vorinostat; first compound 0.03162 µM): 0.661
relative viability (Vemurafenib + Vorinostat; first compound 0.1 µM): 0.729
relative viability (Vemurafenib + Vorinostat; first compound 0.3162 µM): 0.665
relative viability (Vemurafenib + Vorinostat; first compound 1 µM): 0.723
